From patent US4104390A, “Thieno [2,3-c] and [3,2-c] pyridines” (Parcor, priority 1976, dated 1978)
Where two headings read alike, the source gives them in different places.

Experiments:
[1] = system: A.D.P.-induced blood-platelet aggregation; assay: A.D.P.-induced blood-platelet aggregation; assay type: in vivo, Wistar rats; details: Rattus norvegicus, po, rats, 100 mg/kg orally, 3 hours after treatment, 10 μM A.D.P. solution, with respect to control group
Method: (§1) Blood is taken from the jugular vein of Wistar rats. From this citrated blood, and after centrifugation, is reconstituted a plasma containing 600,000 ± 20,000 blood-platelets per ml which is used in all aggregation determinations.
(§2) 0.4 ml plasma is placed in a siliconized tube provided with a magnet bar, also siliconized. The tube is introduced into an aggregometer coupled with an apparatus for recording optical density variations. When light transmission has reached a stable value, 0.5 ml of a solution containing 10 μM A.D.P. (Adenosine-Di-Phosphate) is introduced into the tube.
(§3) Blood-platelet aggregation causes an increase of light transmission followed by a decrease subsequent to the deaggregation phase.
(§4) The maximal optical density variation thus determined characterizes the intensity of the aggregation.
(§5) Different groups of 20 rats are used, each group being orally administered a test derivative at a dosage of 100 mg/kg.

[2] = system: collagen-induced blood-platelet aggregation; assay: Collagen-induced blood-platelet aggregation; assay type: in vivo, Wistar rats; details: Rattus norvegicus, po; rats, 100 mg/kg orally, 3 hours after treatment, collagen (bovine tendon extract), with respect to control group; read-out: Percent inhibition of blood-platelet aggregation, Collagen
Method: as §1, §2, §3, §4
The A.D.P. solution is substituted with a collagen solution (bovine tendon extract).
as §5

[3] = system: carrageenin-induced localized edema; assay: Carrageenin-induced localized edema method; assay type: in vivo; details: Rattus norvegicus, po, rats, 100 mg/kg orally at -1, 0, 1 and 2.5 hours
Method: (a) Carrageenin-induced localized edema method
0.1 ml of a 1% carrageenin solution is injected in the metatarsal flexor muscles of the right hind limb of rats at time 0. The animals of the treated group are additionally orally administered 100 mg/kg of the test derivative, respectively one hour prior to injection of the phlogogenic agent, simultaneously with said injection, and then 1 hour and 2.5 hours thereafter. The determinations effected by means of a ROCH micrometer at times 0, 1 hour, 2 hours, 3 hours and 5 hours after carrageenin administration make it possible to determine, as a function of time, the percent anti-inflammatory activity with respect to the reference group.

[4] = system: ovalbumen-induced systemic edema; assay: Ovalbumen-induced systemic edema method; assay type: in vivo; details: Rattus norvegicus, po, rats, 100 mg/kg orally 1 hour before and with ovalbumen
Method: (b) Ovalbumen-induced systemic edema method
Simultaneous injection of 1 ml ovalbumen and 0.5 ml of a 1% aqueous Evans Blue solution is effected in rats. On the other hand, the animals of the treated group are administered orally 100 mg/kg of the test derivative one hour prior to ovalbumen administration and simultaneously with said administration. The intensity of the phenomenon thus induced is scored according to a scale from 1 to 5 depending on the progress of the inflammatory syndrome. The mean intensity of the edem and the percent decrease of the edema reaction with respect to the control group are thus determined as a function of time.

[5] = read-out: Percent inhibition of blood-platelet aggregation, A.D.P.
[6] = 1 hour after carrageenin, read-out: Percent anti-inflammatory activity after 1 hour
[7] = 2 hours after carrageenin, read-out: Percent anti-inflammatory activity after 2 hours
[8] = 3 hours after carrageenin, read-out: Percent anti-inflammatory activity after 3 hours
[9] = 5 hours after carrageenin, read-out: Percent anti-inflammatory activity after 5 hours
[10] = 2 hours after ovalbumen, read-out: Percent anti-inflammatory activity after 2 hours
[11] = 3 hours after ovalbumen, read-out: Percent anti-inflammatory activity after 3 hours

Row | Compound | inhibition at 100 mg/kg [1, 5] [%] | inhibition at 100 mg/kg [2] [%] | inhibition in vivo at 100 mg/kg [3, 6] [%] | inhibition in vivo at 100 mg/kg [3, 7] [%] | inhibition in vivo at 100 mg/kg [3, 8] [%] | inhibition in vivo at 100 mg/kg [3, 9] [%] | inhibition in vivo at 100 mg/kg [4, 10] [%] | inhibition in vivo at 100 mg/kg [4, 11] [%] | inhibition at 100 mg/kg ([1]; 3 h, heading: Percent inhibition of blood-platelet aggregation) [%]
1 | COc1ccc(CN2Cc3ccsc3C(c3ccccc3)C2)cc1 (centres unmarked) [derivative n°27, 5-p.Methoxybenzyl-7-phenyl-4,5,6,7-tetrahydro-thieno[3,2-c]pyridine] | 63 | 92.4 | 38 | 45 | 49 | 52 | 51 | 56 | –
2 | CC1NCc2ccsc2C1c1ccccc1 (centres unmarked) [derivative n°2, 6-Methyl-7-phenyl-4,5,6,7-tetrahydro-thieno[3,2-c]pyridine] | – | 92.7 | 42 | 48 | 51 | 54 | 42 | 50 | 62.4
3 | c1ccc(CCN2Cc3ccsc3C(c3ccccc3)C2)cc1 (centres unmarked) [derivative n°20, 5-Phenethyl-7-phenyl-4,5,6,7-tetrahydro-thieno[3,2-c]pyridine] | 63.6 | 94.2 | 43 | 48 | 52 | 55 | 53 | 61 | –
4 | O=C(O)c1ccccc1CN1Cc2sccc2C(c2ccccc2)C1 (centres unmarked) [derivative n°16, 6-o.Carboxybenzyl-4-phenyl-4,5,6,7-tetrahydro-thieno[2,3-c]pyridine] | 63.2 | 94.1 | 39 | 45 | 50 | 52 | 49 | 56 | –
5 | N#Cc1ccccc1CN1Cc2ccsc2C(c2ccccc2)C1 (centres unmarked) [derivative n°26] | 60.9 | 90.2 | 44 | 49 | 52 | 56 | 48 | 54 | –
6 | CN1Cc2ccsc2C(c2ccccc2)C1 (centres unmarked) [derivative n°6, 5-Methyl-7-phenyl-4,5,6,7-tetrahydro-thieno[3,2-c]pyridine] | 61.7 | 90.4 | 45 | 52 | 56 | 58 | 47 | 55 | –
7 | c1ccc(CN2Cc3ccsc3C(c3ccccc3)C2)cc1 (centres unmarked) [derivative n°24, 5-Benzyl-7-phenyl-4,5,6,7-tetrahydro-thieno[3,2-c]pyridine] | 62.6 | 93 | 41 | 47 | 50 | 53 | 42 | 47 | –
8 | CC1C(c2ccccc2)c2sccc2CN1Cc1ccc([N+](=O)[O-])cc1 (centres unmarked) [derivative n°22, 6-Methyl-5-p.nitrobenzyl-7-phenyl-4,5,6,7-tetrahydro-thieno[3,2-c]pyridine] | 63.4 | 94.6 | 41 | 49 | 53 | 56 | 50 | 57 | –
9 | Clc1ccc(C2CN(Cc3ccccc3Cl)Cc3sccc32)cc1 (centres unmarked) [derivative n°9, 6-o.Chlorobenzyl-4-p.chlorophenyl-4,5,6,7-tetrahydro-thieno[2,3-c]pyridine] | 64.3 | 93.8 | 44 | 52 | 55 | 57 | 48 | 56 | –
10 | Cc1ccc(C2CN(Cc3ccccc3Cl)Cc3sccc32)cc1 (centres unmarked) [derivative n°10, 6-o.Chlorobenzyl-4-p.tolyl-4,5,6,7-tetrahydrothieno[2,3-c]pyridine] | 65 | 96 | 38 | 45 | 48 | 52 | 53 | 60 | –
11 | O=[N+]([O-])c1ccc(CN2Cc3sccc3C(c3ccccc3)C2)cc1 (centres unmarked) [derivative n°17, 6-p.Nitrobenzyl-4-phenyl-4,5,6,7-tetrahydro-thieno[2,3-c]pyridine] | 63.9 | 95 | 42 | 50 | 54 | 58 | 43 | 51 | –
12 | c1ccc(CN2Cc3sccc3C(c3ccccc3)C2)cc1 (centres unmarked) [derivative n°12, 6-Benzyl-4-phenyl-4,5,6,7-tetrahydro-thieno[2,3-c]pyridine] | 63.7 | 93.3 | 47 | 53 | 57 | 60 | 47 | 55 | –
13 | COc1cc(CN2Cc3sccc3C(c3ccccc3)C2)cc(OC)c1OC (centres unmarked) [derivative n°14, 4-Phenyl-6-(3,4,5-trimethoxy-benzyl)-4,5,6,7-tetrahydro-thieno[2,3-c]pyridine] | 64.1 | 93.9 | 37 | 44 | 49 | 54 | 43 | 52 | –
14 | c1ccc(C2CNCc3ccsc32)cc1 (centres unmarked) [derivative n°4, 7-Phenyl-4,5,6,7-tetrahydro-thieno[3,2-c]pyridine] | 64 | 95 | 38 | 44 | 49 | 53 | 54 | 62 | –
15 | CC1C(c2ccccc2)c2sccc2CN1Cc1ccccc1Cl (centres unmarked) [derivative n°23, 5-o.Chlorobenzyl-6-methyl-7-phenyl-4,5,6,7-tetrahydro-thieno[3,2-c]pyridine] | 64.8 | 94.5 | 39 | 44 | 48 | 52 | 47 | 54 | –
16 | COc1ccc(C2CN(Cc3ccccc3Cl)Cc3sccc32)cc1 (centres unmarked) [derivative n°7, 6-o-Chlorobenzyl-4-p-methoxyphenyl-4,5,6,7-tetrahydro-thieno[2,3-c]pyridine] | 61.5 | 90.7 | 44 | 50 | 54 | 59 | 52 | 59 | –
